Assay results taken from ChEMBL document CHEMBL5329204, “Design, synthesis and biological evaluation of EGFR kinase inhibitors that spans the orthosteric and allosteric sites” (Bioorg Med Chem, 2023).

How the values were obtained:
[1] = Inhibition of EGFR L858R/T790M/C797S triple mutant in mouse BaF3 cells assessed as cell growth inhibition measured after 72 hrs by CellTiter-Glo assay; format: cell-based; conditions: BaF3, 72 h
NCI-H1975 [2] = assay: Anticancer activity against human NCI-H1975 cells assessed as cell growth inhibition measured after 72 hrs by MTT assay; format: functional, cell-based; conditions: NCI-H1975, 72 h
[3] = Inhibition of EGFR Del19/T790M/C797S triple mutant in mouse BaF3 cells assessed as cell growth inhibition measured after 72 hrs by CellTiter-Glo assay; format: cell-based; conditions: BaF3, 72 h
[4] = Inhibition of EGFR L858R/T790M double mutant in mouse BaF3 cells assessed as cell growth inhibition measured after 72 hrs by CellTiter-Glo assay; format: cell-based; conditions: BaF3, 72 h
A549 = assay: Anticancer activity against human A549 cells assessed as cell growth inhibition measured after 72 hrs by MTT assay; format: functional, cell-based; conditions: A549, 72 h
NCI-H1975 [5] = assay: Potency index, ratio of gefitinib IC50 to test compound IC50 for anticancer activity against human NCI-H1975 cells assessed as cell growth inhibition measured after 72 hrs by MTT assay; format: functional

| Compound | IC50 (NCI-H1975 [2]) [µM] | IC50 (A549) [µM] | IC50 [1] [µM] | IC50 [3] [µM] | IC50 [4] [µM] | Ratio IC50 (NCI-H1975 [5]) |
| --- | --- | --- | --- | --- | --- | --- |
| O=C(Nc1nccs1)C(c1ccccc1)N1Cc2ccccc2C1=O (stereo not drawn) | > 10 |  | > 10 | > 10 |  |  |
| CNC(=O)CN1CCC(Oc2cc3c(Nc4ccc(NC(=O)C(c5ccccc5)N5Cc6ccccc6C5=O)cc4)ncnc3cc2OC)CC1 (stereo not drawn) | > 20 | > 20 | > 20 | > 20 | 1.32 |  |
| COc1cc2ncnc(Nc3ccc(CNC(=O)C(c4ccccc4)N4Cc5ccccc5C4=O)cc3)c2cc1OCCCN1CCOCC1 (stereo not drawn) | 14.4 |  | > 20 |  |  |  |
| CC(C)(O)CC(=O)NCCn1ccc2ncnc(Nc3ccc(NC(=O)C(c4ccccc4)N4Cc5ccccc5C4=O)cc3)c21 (stereo not drawn) | > 20 | > 20 | > 20 | > 20 | > 20 |  |
| COc1cc2ncnc(NNC(=O)c3ccc(NC(=O)C(c4ccccc4)N4Cc5ccccc5C4=O)cc3)c2cc1OCCCN1CCOCC1 (stereo not drawn) | > 20 |  | > 20 |  |  |  |
| COc1cc2ncnc(NNC(=O)c3cccc(NC(=O)C(c4ccccc4)N4Cc5ccccc5C4=O)c3)c2cc1OCCCN1CCOCC1 (stereo not drawn) | > 20 |  | > 20 |  |  |  |
| COc1cc2ncnc(NCc3ccc(NC(=O)C(c4ccccc4)N4Cc5ccccc5C4=O)cc3)c2cc1OCCCN1CCOCC1 (stereo not drawn) | 11 |  | 3.67 | 3.46 |  |  |
| COc1cc2ncnc(Nc3ccc(C(=O)NNC(=O)C(c4ccccc4)N4Cc5ccccc5C4=O)cc3)c2cc1OCCCN1CCOCC1 (stereo not drawn) | > 20 |  | > 20 |  |  |  |
| COc1cc2ncnc(Nc3cccc(NC(=O)C(c4ccccc4)N4Cc5ccccc5C4=O)c3)c2cc1OCCCN1CCOCC1 (stereo not drawn) | 9.32 |  | 9.06 |  |  |  |
| C=CC(=O)Nc1cc(Nc2nccc(-c3cn(C)c4ccccc34)n2)c(OC)cc1N(C)CCN(C)C [OSIMERTINIB] |  |  |  | 0.75 |  |  |

The next lines start with results.

| IC50 (NCI-H1975 [2]) [µM] | IC50 (A549) [µM] | Compound | IC50 [1] [µM] | IC50 [3] [µM] | IC50 [4] [µM] | Ratio IC50 (NCI-H1975 [5]) |
| --- | --- | --- | --- | --- | --- | --- |
| 9 |  | COc1cc2ncnc(Nc3ccc(NC(=O)C(c4ccccc4)N4Cc5ccccc5C4=O)cc3F)c2cc1OCCCN1CCOCC1 (stereo not drawn) | 6.16 |  |  |  |
| 3.72 |  | COc1cc2ncnc(Nc3ccc(NC(=O)C(c4ccccc4)N4Cc5ccccc5C4=O)c(F)c3)c2cc1OCCCN1CCOCC1 (stereo not drawn) | 5.85 |  |  |  |
| 1.85 | > 20 | COCCOc1cc2ncnc(Nc3ccc(NC(=O)C(c4ccccc4)N4Cc5ccccc5C4=O)cc3)c2cc1OCCOC (stereo not drawn) | > 20 | > 20 | 2.69 |  |
| 8.74 |  | COc1cc2ncnc(NCc3cccc(NC(=O)C(c4ccccc4)N4Cc5ccccc5C4=O)c3)c2cc1OCCCN1CCOCC1 (stereo not drawn) | 8.83 |  |  |  |
| 1.69 | > 20 | COc1cc2ncnc(Nc3ccc(NC(=O)C(c4ccccc4)N4Cc5ccccc5C4=O)cc3)c2cc1OCCCN1CCOCC1 (stereo not drawn) | 5.47 | 8.13 | 1.45 | 6 |
| 5.13 |  | COc1cc2ncnc(NNc3ccc(NC(=O)C(c4ccccc4)N4Cc5ccccc5C4=O)cc3)c2cc1OCCCN1CCOCC1 (stereo not drawn) | 7.8 |  |  |  |
| 6.28 |  | COc1cc2ncnc(N(C)c3ccc(NC(=O)C(c4ccccc4)N4Cc5ccccc5C4=O)cc3)c2cc1OCCCN1CCOCC1 (stereo not drawn) | 8.45 |  |  |  |
